The values that follow come from ChEMBL document CHEMBL1201862, “PubChem BioAssay data set” (2004).

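Protocol summary: plate cells (96-well), add compound at 5 concentrations, incubate 48 h, interpolate endpoints linearly. The concentration for 50% growth inhibition is given as GI50.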 Active and inactive are the calls of the source. Cut-off read from the data, not from the text of the source: active = GI50 up to about 1.1 µM and inactive = higher.

Some test systems named below: HCT-116; HL-60; HOP-92; HT-29; Hs-578T; IGROV-1; K562; MDA-MB-435; NCI-H23; NCI-H460; OVCAR-5; OVCAR-8; PC-3; RPMI-8226; RXF 393; SK-MEL-5; SNB-19; T47D; UO-31.
Holding throughout (test): inhibition of tumour cell growth, NCI panel, 48 h

`COC(=O)C1=CON2C3CC4CC(C3)CC(C4)C12C` (stereo not drawn): the GI50 in the test with HCT-116, in the test on HL-60, in the test with HOP-92, in the test with HT-29, with Hs-578T and in the test on IGROV-1 was > 100 µM (inactive) each time. Moreover, the GI50 in the test with K562, with MDA-MB-435, in the test with NCI-H23, in the test on NCI-H460, in the test on OVCAR-5 and with OVCAR-8 was > 100 µM (inactive) throughout. Besides, the GI50 with PC-3, in the test on RPMI-8226, in the test on RXF 393, in the test on SK-MEL-5, with SNB-19 and in the test on T47D was > 100 µM (inactive) throughout. Further, the GI50 in the test with UO-31 is > 100 µM (inactive).

Turning to `O=C(/C=C/c1ccc(O)c(O)c1)c1cc(O)cc(O)c1`, the GI50 is 12.8 µM (inactive) with HCT-116; 2.25 µM (inactive) in the test on HL-60; 13 µM (inactive) in the test with HOP-92; 19.4 µM (inactive) with HT-29; 11 µM (inactive) in the test on Hs-578T; 13.8 µM (inactive) in the test with IGROV-1. For the same compound, the GI50 with MDA-MB-435 was 6.59 µM (inactive); in the test with NCI-H23, 12.3 µM (inactive); in the test on OVCAR-5, 14.6 µM (inactive); with OVCAR-8 it was 14.3 µM (inactive); in the test on PC-3, 13.5 µM (inactive); with RPMI-8226, 71.6 µM (inactive). Besides, the GI50 is 10.4 µM (inactive) with RXF 393; > 100 µM (inactive) in the test on SK-MEL-5; 14.5 µM (inactive) with SNB-19; 10.5 µM (inactive) in the test with T47D; 10.6 µM (inactive) in the test with UO-31.

With `CCOC(=O)C(NCc1cccc(C(F)(F)F)c1)(NC(=O)c1ccccc1)C(F)(F)F` (stereo not drawn), the GI50 in the test with HCT-116 was 28.5 µM (inactive); with HL-60, 86.9 µM (inactive); with HOP-92, 27.2 µM (inactive); in the test with HT-29 it was 19.6 µM (inactive); in the test on Hs-578T it was 47.1 µM (inactive); in the test on IGROV-1 it was 23.7 µM (inactive). For the same compound, the GI50 with K562 is 26.7 µM (inactive); in the test on MDA-MB-435, 24.3 µM (inactive); in the test on NCI-H23 it was 21.8 µM (inactive); in the test on OVCAR-5, 71.1 µM (inactive); in the test on OVCAR-8 it was 32.4 µM (inactive); in the test with PC-3, 30.5 µM (inactive). Also, the GI50 in the test with RPMI-8226 is 9.1 µM (inactive); in the test on RXF 393, 9.08 µM (inactive); with SK-MEL-5, 30.5 µM (inactive); in the test with SNB-19, 71.9 µM (inactive); in the test with T47D, 22.2 µM (inactive); in the test on UO-31 it was 18.1 µM (inactive).

`C[C@]1(O)O[C@@H]2OCC[C@@H]2C2=C1C(=O)c1ccccc1C2=O`: the GI50 is 12.3 µM (inactive) with HL-60; 12.8 µM (inactive) in the test with HOP-92; 29.9 µM (inactive) in the test on HT-29; 30.3 µM (inactive) in the test with Hs-578T; 14.2 µM (inactive) in the test on IGROV-1; 15.7 µM (inactive) in the test on K562. The GI50 is 6.56 µM (inactive) with MDA-MB-435; 14.7 µM (inactive) in the test with NCI-H23; 16 µM (inactive) with NCI-H460; 17.3 µM (inactive) in the test on OVCAR-5; 15.3 µM (inactive) with OVCAR-8; 22.1 µM (inactive) with PC-3. The GI50 in the test on RPMI-8226 is 3.62 µM (inactive); in the test with RXF 393 it was 12.7 µM (inactive); in the test on SK-MEL-5, 12.4 µM (inactive); with SNB-19, 18 µM (inactive); in the test on T47D, 18.3 µM (inactive); in the test with UO-31 it was 17.9 µM (inactive).

Take `C[C@]12CCC(=O)[C@@H](CCC3=CC(=O)C=CC3=O)[C@@H]1CCC2=O`: the GI50 in the test with HCT-116 is 15.5 µM (inactive); in the test with HL-60, 2.7 µM (inactive); in the test on HOP-92, 14.2 µM (inactive); in the test on HT-29 it was 25.6 µM (inactive); in the test with Hs-578T, 3.97 µM (inactive); in the test with K562, 2.14 µM (inactive). The GI50 in the test with MDA-MB-435 is 22 µM (inactive); in the test with NCI-H23, 12.5 µM (inactive); in the test with NCI-H460, 13.2 µM (inactive); with OVCAR-5 it was 41.5 µM (inactive); in the test on OVCAR-8 it was 16.1 µM (inactive); in the test with PC-3 it was 12.9 µM (inactive). The GI50 in the test with RPMI-8226 is 1.6 µM (inactive); with RXF 393 it was 1.9 µM (inactive); in the test on SK-MEL-5, 6.32 µM (inactive); in the test with SNB-19, 41.5 µM (inactive); with T47D, 9.23 µM (inactive); with UO-31, 14.3 µM (inactive).

With `CN(C)Cc1cc(C(=O)/C=C/c2ccc([N+](=O)[O-])cc2)cc(CN(C)C)c1O`, the GI50 is 2.86 µM (inactive) in the test on HCT-116; 2.07 µM (inactive) in the test with HL-60; 8.83 µM (inactive) in the test on HOP-92; 9.04 µM (inactive) in the test on HT-29; 18.8 µM (inactive) in the test with Hs-578T; 12.2 µM (inactive) in the test with IGROV-1. The GI50 with K562 was 4.13 µM (inactive); in the test with MDA-MB-435, 7.1 µM (inactive); in the test on NCI-H23, 18.3 µM (inactive); with OVCAR-5, 16.6 µM (inactive); in the test with OVCAR-8, 25 µM (inactive); in the test with PC-3, 17 µM (inactive). In addition, the GI50 in the test with RPMI-8226 was 2.43 µM (inactive); in the test on RXF 393, 14.2 µM (inactive); in the test on SK-MEL-5, 11.3 µM (inactive); in the test with SNB-19 it was 83.4 µM (inactive); in the test on T47D, 13.4 µM (inactive); in the test with UO-31 it was 16.1 µM (inactive).

Consider `CCCNCC(O)CNc1ccc(NCC(O)CNCCC)c2c1C(=O)c1ccccc1C2=O` (stereo not drawn), for which the GI50 with HCT-116 is 2.56 µM (inactive); in the test on HL-60 it was 2.52 µM (inactive); in the test with HOP-92, 2.07 µM (inactive); in the test with HT-29, 2.17 µM (inactive); with Hs-578T it was 3.61 µM (inactive); in the test with IGROV-1 it was 2.04 µM (inactive). Also, the GI50 is 2.14 µM (inactive) in the test with K562; 2.81 µM (inactive) in the test on MDA-MB-435; 3.24 µM (inactive) in the test with NCI-H23; 2.42 µM (inactive) in the test on NCI-H460; 1.61 µM (inactive) with OVCAR-5; 2.26 µM (inactive) in the test with OVCAR-8. Besides, the GI50 is 1.95 µM (inactive) in the test with PC-3; 1.69 µM (inactive) with RPMI-8226; 2.69 µM (inactive) in the test on SK-MEL-5; 1.95 µM (inactive) in the test on SNB-19; 4.02 µM (inactive) in the test on T47D; 12.6 µM (inactive) in the test on UO-31.

Turning to `COc1cc(OC)c(/C=C\c2ccnc3ccccc23)c(OC)c1`, the GI50 in the test on HCT-116 is 2.5 µM (inactive); in the test with HL-60 it was 0.347 µM (active); in the test on HOP-92, 3.51 µM (inactive); in the test on HT-29, 2.67 µM (inactive); with Hs-578T, 2.64 µM (inactive); in the test with IGROV-1 it was 1.45 µM (inactive). The GI50 was 0.433 µM (active) in the test with K562; 0.404 µM (active) with MDA-MB-435; 5.61 µM (inactive) with NCI-H23; 3.2 µM (inactive) in the test with NCI-H460; 6.05 µM (inactive) in the test on OVCAR-5; 5.51 µM (inactive) in the test with PC-3. Besides, the GI50 is 3.06 µM (inactive) in the test on RPMI-8226; 2.39 µM (inactive) with RXF 393; 1.7 µM (inactive) in the test on SK-MEL-5; 5.5 µM (inactive) in the test on SNB-19; 3.12 µM (inactive) in the test on T47D; 0.859 µM (active) in the test with UO-31.

Take `COc1cccc2nc3c(C(=O)NCCN(C)C)cccc3cc12`: the GI50 in the test on HCT-116 is 1.34 µM (inactive); in the test on HOP-92, 1.21 µM (inactive); in the test on HT-29, 1.21 µM (inactive); in the test with Hs-578T, 1.82 µM (inactive); with IGROV-1, 1.88 µM (inactive); with K562, 1.95 µM (inactive). For the same compound, the GI50 in the test with MDA-MB-435 was 2.69 µM (inactive); in the test with NCI-H23, 1.17 µM (inactive); in the test with NCI-H460, 0.195 µM (active); in the test with OVCAR-5, 1.94 µM (inactive); in the test on OVCAR-8, 1.26 µM (inactive); with PC-3, 2.34 µM (inactive). For the same compound, the GI50 was 1.21 µM (inactive) in the test with RPMI-8226; 3.94 µM (inactive) in the test on RXF 393; 1.41 µM (inactive) in the test on SK-MEL-5; 2.35 µM (inactive) in the test with SNB-19; 3.65 µM (inactive) in the test on T47D; 1.11 µM (active) in the test on UO-31.

`C=C1CC(COc2ccc3c(C)cc(=O)oc3c2)(c2ccccc2)OC1=O` (stereo not drawn): the GI50 in the test with HCT-116 was 1.27 µM (inactive); in the test on HL-60, 0.263 µM (active); in the test with HOP-92 it was 0.394 µM (active); with HT-29, 1.29 µM (inactive); with Hs-578T, 6.82 µM (inactive); in the test on IGROV-1 it was 1.84 µM (inactive). Further, the GI50 was 0.356 µM (active) in the test with K562; 2.43 µM (inactive) with MDA-MB-435; 2.34 µM (inactive) with NCI-H23; 7.43 µM (inactive) with NCI-H460; 12.1 µM (inactive) in the test on OVCAR-5; 2.26 µM (inactive) in the test with OVCAR-8. Further, the GI50 with PC-3 was 2.2 µM (inactive); in the test with RPMI-8226, 0.292 µM (active); in the test with SK-MEL-5, 2.2 µM (inactive); in the test with SNB-19, 15.2 µM (inactive); in the test on T47D it was 2.24 µM (inactive); in the test on UO-31, 4.88 µM (inactive).

Regarding `O=CC(O)C(O)C(O)C1CNC(=S)O1` (stereo not drawn), the GI50 in the test with HCT-116, in the test on HL-60, in the test on HOP-92, with HT-29, with Hs-578T and with IGROV-1 was > 100 µM (inactive) in each case. Besides, the GI50 in the test on K562, with MDA-MB-435, in the test on NCI-H23, in the test on NCI-H460, in the test on OVCAR-5 and with OVCAR-8 was > 100 µM (inactive) each time. Further, the GI50 in the test on PC-3, in the test with RPMI-8226, in the test with RXF 393, with SK-MEL-5, in the test with T47D and in the test on UO-31 was > 100 µM (inactive) throughout.
